Reference: ChEMBL document CHEMBL1153581, “Synthesis, antiviral and anticancer activity of some novel thioureas derived from N-(4-nitro-2-phenoxyphenyl)-methanesulfonamide” (Eur J Med Chem, 2009)
Converted amounts (≈) assume the structure as drawn.

What follows are compounds tested on Vaccinia virus (assay: Antiviral activity against Vaccinia virus infected in human HEL cells assessed as protection against virus-induced cytopathogenicity). Settings: Orthopoxvirus vaccinia.
Type: functional

Row | SMILES | MIC50
1 | CS(=O)(=O)Nc1ccc(NC(=S)NCCc2ccc(Cl)cc2)cc1Oc1ccccc1 | > 100 µg/mL
2 | NC(=O)c1ncn([C@@H]2O[C@H](CO)[C@@H](O)[C@H]2O)n1 [RIBAVIRIN] | 150 µg/mL (≈ 614 µM)
3 | CS(=O)(=O)Nc1ccc(NC(=S)NC2CCCCC2)cc1Oc1ccccc1 | > 8 µg/mL
4 | CS(=O)(=O)Nc1ccc(NC(=S)NCCc2ccccc2)cc1Oc1ccccc1 | > 8 µg/mL
5 | CS(=O)(=O)Nc1ccc(NC(=S)Nc2ccc([N+](=O)[O-])cc2)cc1Oc1ccccc1 | 8 µg/mL (≈ 17.4 µM)
6 | CCNC(=S)Nc1ccc(NS(C)(=O)=O)c(Oc2ccccc2)c1 | 40 µg/mL (≈ 109 µM)
7 | Nc1nc2c(ncn2COC(CO)CO)c(=O)[nH]1 [GANCICLOVIR] | 100 µg/mL (≈ 392 µM)
8 | CCCNC(=S)Nc1ccc(NS(C)(=O)=O)c(Oc2ccccc2)c1 | > 40 µg/mL
9 | CNC(=S)Nc1ccc(NS(C)(=O)=O)c(Oc2ccccc2)c1 | 100 µg/mL (≈ 285 µM)
10 | CS(=O)(=O)Nc1ccc(NC(=S)NCc2ccccc2)cc1Oc1ccccc1 | > 8 µg/mL
11 | Nc1nc2c(ncn2COCCO)c(=O)[nH]1 [ACYCLOVIR] | > 250 µg/mL
12 | C=CCNC(=S)Nc1ccc(NS(C)(=O)=O)c(Oc2ccccc2)c1 | > 40 µg/mL
13 | O=c1[nH]c(=O)n([C@H]2C[C@H](O)[C@@H](CO)O2)cc1/C=C/Br [BRIVUDINE] | 2 µg/mL (≈ 6 µM)
